Results as given in patent US9682995B2, “Amino-substituted isothiazoles” (BAYER PHARMA AKTIENGESELLSCHAFT, priority 2013, dated 2017).

Assays:
Assay in all cases: Kinase Profiling (KINOMEscan)
Format in all cases: binding
[1] = molecular target: 456 kinases (of these 395 non-mutant kinases) (Homo sapiens, UniProt Q99558); details: NIK; 10 μM
[2] = molecular target: 456 kinases (of these 395 non-mutant kinases) (Homo sapiens, UniProt Q9H1R3); details: MYLK2; 10 μM
[3] = molecular target: 456 kinases (of these 395 non-mutant kinases) (Homo sapiens, UniProt P07947); details: YES; 10 μM
[4] = molecular target: 456 kinases (of these 395 non-mutant kinases) (Homo sapiens, UniProt O94804); details: LOK; 10 μM
[5] = molecular target: 456 kinases (of these 395 non-mutant kinases) (Homo sapiens, UniProt Q9UPE1); details: SRPK3; 10 μM
[6] = molecular target: 456 kinases (of these 395 non-mutant kinases) (Homo sapiens, UniProt Q9Y5S2); details: MRCKB; 10 μM
[7] = molecular target: 456 kinases (of these 395 non-mutant kinases) (Homo sapiens, UniProt O76039); details: CDKL5; 10 μM
[8] = molecular target: 456 kinases (of these 395 non-mutant kinases) (Homo sapiens, UniProt Q59H18); details: TNNI3K; 10 μM
[9] = molecular target: 456 kinases (of these 395 non-mutant kinases) (Homo sapiens, UniProt Q9P2K8, S808G); details: GCN2(Kin.Dom.2,S808G); 10 μM
[10] = molecular target: 456 kinases (of these 395 non-mutant kinases) (Homo sapiens, UniProt Q8TD08); details: ERK8; 10 μM
[11] = molecular target: 456 kinases (of these 395 non-mutant kinases) (Homo sapiens, UniProt Q99683); details: ASK1; 10 μM
[12] = molecular target: 456 kinases (of these 395 non-mutant kinases) (Homo sapiens, UniProt Q9HAZ1); details: CLK4; 10 μM
[13] = molecular target: 456 kinases (of these 395 non-mutant kinases) (Homo sapiens, UniProt O43293); details: DAPK3; 10 μM
[14] = molecular target: 456 kinases (of these 395 non-mutant kinases) (Homo sapiens, UniProt O15146); details: MUSK; 10 μM
[15] = molecular target: 456 kinases (of these 395 non-mutant kinases) (Homo sapiens, UniProt P00519, Y253F); details: ABL1(Y253F)-phosphorylated; 10 μM
[16] = molecular target: 456 kinases (of these 395 non-mutant kinases) (Homo sapiens, UniProt P21802); details: FGFR2; 10 μM
[17] = molecular target: 456 kinases (of these 395 non-mutant kinases) (Homo sapiens, UniProt Q13627); details: DYRK1A; 10 μM
[18] = molecular target: 456 kinases (of these 395 non-mutant kinases) (Homo sapiens, UniProt Q13554); details: CAMK2B; 10 μM
[19] = molecular target: 456 kinases (of these 395 non-mutant kinases) (Homo sapiens, UniProt Q96PY6); details: NEK1; 10 μM
[20] = molecular target: 456 kinases (of these 395 non-mutant kinases) (Homo sapiens, UniProt Q86UE8); details: TLK2; 10 μM
[21] = molecular target: 456 kinases (of these 395 non-mutant kinases) (Homo sapiens, UniProt Q13153); details: PAK1; 10 μM
[22] = molecular target: 456 kinases (of these 395 non-mutant kinases) (Homo sapiens, UniProt P07948); details: LYN; 10 μM
[23] = molecular target: 456 kinases (of these 395 non-mutant kinases) (Homo sapiens, UniProt P46734); details: MEK3; 10 μM
[24] = molecular target: 456 kinases (of these 395 non-mutant kinases) (Homo sapiens, UniProt P37023); details: ACVRL1; 10 μM
[25] = molecular target: 456 kinases (of these 395 non-mutant kinases) (Homo sapiens, UniProt Q9NSY1); details: BIKE; 10 μM
[26] = molecular target: 456 kinases (of these 395 non-mutant kinases) (Homo sapiens, UniProt Q9UKI8); details: TLK1; 10 μM
[27] = molecular target: 456 kinases (of these 395 non-mutant kinases) (Homo sapiens, UniProt P42336, E545K); details: PIK3CA(E545K); 10 μM
[28] = molecular target: 456 kinases (of these 395 non-mutant kinases) (Homo sapiens, UniProt P42345); details: MTOR; 10 μM
[29] = molecular target: 456 kinases (of these 395 non-mutant kinases) (Homo sapiens, UniProt Q14012); details: CAMK1; 10 μM
[30] = molecular target: 456 kinases (of these 395 non-mutant kinases) (Homo sapiens, UniProt O95819); details: MAP4K4; 10 μM
[31] = molecular target: 456 kinases (of these 395 non-mutant kinases) (Homo sapiens, UniProt P45985); details: MEK4; 10 μM
[32] = molecular target: 456 kinases (of these 395 non-mutant kinases) (Homo sapiens, UniProt O60674); details: JAK2(JH1domain-catalytic); 10 μM

456 kinases (of these 395 non-mutant kinases) (Homo sapiens, UniProt Q9H1R3), sequence (Q9H1R3 2-596 limits assumed, change not shown): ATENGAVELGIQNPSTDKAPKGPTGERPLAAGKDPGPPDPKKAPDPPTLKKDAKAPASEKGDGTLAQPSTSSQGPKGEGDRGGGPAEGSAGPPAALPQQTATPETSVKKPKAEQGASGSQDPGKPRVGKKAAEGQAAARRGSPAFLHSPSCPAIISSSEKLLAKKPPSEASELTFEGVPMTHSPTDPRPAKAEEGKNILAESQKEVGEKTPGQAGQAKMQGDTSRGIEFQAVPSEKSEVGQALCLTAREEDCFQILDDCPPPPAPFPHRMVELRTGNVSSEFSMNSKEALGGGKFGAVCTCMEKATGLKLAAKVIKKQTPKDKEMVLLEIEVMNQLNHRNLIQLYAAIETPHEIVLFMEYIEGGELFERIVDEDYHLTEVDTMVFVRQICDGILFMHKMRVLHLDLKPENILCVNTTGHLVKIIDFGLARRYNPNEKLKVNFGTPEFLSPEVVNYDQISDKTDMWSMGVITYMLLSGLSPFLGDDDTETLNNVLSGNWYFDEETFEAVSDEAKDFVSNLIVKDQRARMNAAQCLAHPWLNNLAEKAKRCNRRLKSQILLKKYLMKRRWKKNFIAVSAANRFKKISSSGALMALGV
456 kinases (of these 395 non-mutant kinases) (Homo sapiens, UniProt P45985), sequence (P45985 2-399 limits assumed, change not shown): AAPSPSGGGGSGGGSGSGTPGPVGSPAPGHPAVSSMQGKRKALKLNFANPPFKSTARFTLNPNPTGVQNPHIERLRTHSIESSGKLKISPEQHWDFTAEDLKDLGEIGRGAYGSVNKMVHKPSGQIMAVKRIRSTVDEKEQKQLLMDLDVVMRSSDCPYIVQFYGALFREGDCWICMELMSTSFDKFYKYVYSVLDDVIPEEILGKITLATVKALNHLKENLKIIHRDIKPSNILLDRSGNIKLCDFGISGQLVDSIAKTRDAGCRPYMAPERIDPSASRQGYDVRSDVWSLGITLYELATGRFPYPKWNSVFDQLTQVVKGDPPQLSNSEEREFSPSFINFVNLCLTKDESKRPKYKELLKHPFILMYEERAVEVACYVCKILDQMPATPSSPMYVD
456 kinases (of these 395 non-mutant kinases) (Homo sapiens, UniProt P21802), sequence (P21802 22-821 limits assumed, change not shown): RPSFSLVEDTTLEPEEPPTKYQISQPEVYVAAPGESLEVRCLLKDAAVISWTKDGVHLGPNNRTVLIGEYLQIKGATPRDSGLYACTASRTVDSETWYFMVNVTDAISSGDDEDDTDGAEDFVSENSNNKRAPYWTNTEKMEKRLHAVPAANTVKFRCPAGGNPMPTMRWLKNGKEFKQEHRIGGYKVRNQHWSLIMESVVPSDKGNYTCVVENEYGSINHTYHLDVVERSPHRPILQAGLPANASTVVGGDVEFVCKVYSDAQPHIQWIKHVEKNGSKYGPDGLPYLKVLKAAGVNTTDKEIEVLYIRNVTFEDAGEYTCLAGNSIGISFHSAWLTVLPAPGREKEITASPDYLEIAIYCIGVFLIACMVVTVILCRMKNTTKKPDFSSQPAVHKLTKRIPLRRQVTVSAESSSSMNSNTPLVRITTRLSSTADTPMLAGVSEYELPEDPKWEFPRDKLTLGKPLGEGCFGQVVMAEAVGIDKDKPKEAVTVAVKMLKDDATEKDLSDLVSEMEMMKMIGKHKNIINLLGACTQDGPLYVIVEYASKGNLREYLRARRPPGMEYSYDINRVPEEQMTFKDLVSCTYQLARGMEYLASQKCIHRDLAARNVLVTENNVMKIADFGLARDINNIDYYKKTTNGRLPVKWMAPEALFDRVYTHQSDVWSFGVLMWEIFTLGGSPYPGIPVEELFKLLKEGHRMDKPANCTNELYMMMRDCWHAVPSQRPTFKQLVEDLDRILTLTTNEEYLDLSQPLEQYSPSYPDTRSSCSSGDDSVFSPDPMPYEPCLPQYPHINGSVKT
456 kinases (of these 395 non-mutant kinases) (Homo sapiens, UniProt P37023), sequence (P37023 22-503 limits assumed, change not shown): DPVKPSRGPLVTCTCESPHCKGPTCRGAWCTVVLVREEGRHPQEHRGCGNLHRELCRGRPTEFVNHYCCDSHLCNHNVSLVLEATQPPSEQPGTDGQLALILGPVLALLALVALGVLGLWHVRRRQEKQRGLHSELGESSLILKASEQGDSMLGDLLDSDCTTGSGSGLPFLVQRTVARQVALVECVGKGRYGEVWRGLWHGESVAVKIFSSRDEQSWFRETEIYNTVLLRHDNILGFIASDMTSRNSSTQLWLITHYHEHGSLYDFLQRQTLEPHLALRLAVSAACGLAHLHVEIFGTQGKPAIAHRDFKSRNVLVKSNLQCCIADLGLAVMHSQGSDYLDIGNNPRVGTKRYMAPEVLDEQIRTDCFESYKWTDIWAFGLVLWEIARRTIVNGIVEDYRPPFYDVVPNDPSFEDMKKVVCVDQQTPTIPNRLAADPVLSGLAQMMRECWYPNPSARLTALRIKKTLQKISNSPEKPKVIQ
456 kinases (of these 395 non-mutant kinases) (Homo sapiens, UniProt O15146), sequence (O15146 24-869 limits assumed, stated change not applied): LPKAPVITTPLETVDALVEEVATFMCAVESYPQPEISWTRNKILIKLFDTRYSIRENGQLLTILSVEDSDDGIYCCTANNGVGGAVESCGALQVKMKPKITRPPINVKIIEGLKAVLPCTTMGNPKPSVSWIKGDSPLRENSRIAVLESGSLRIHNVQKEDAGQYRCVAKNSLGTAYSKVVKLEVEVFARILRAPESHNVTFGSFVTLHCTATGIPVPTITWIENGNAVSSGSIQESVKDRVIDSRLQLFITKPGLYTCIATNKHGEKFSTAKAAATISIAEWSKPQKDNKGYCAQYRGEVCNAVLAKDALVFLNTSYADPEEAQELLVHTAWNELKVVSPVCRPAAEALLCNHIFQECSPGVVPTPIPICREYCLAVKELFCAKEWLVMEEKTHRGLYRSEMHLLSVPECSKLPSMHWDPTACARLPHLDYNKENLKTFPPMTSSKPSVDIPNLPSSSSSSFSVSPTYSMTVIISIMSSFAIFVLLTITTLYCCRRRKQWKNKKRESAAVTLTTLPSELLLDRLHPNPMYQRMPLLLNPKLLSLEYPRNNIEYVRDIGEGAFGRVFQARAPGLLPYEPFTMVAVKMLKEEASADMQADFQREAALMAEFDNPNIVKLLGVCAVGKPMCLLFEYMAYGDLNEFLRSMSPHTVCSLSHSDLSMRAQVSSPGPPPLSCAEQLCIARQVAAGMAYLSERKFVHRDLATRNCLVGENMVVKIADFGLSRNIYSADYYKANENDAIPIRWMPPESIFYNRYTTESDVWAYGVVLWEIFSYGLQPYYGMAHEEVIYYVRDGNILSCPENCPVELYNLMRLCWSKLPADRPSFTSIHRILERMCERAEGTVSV
456 kinases (of these 395 non-mutant kinases) (Homo sapiens, UniProt Q13153), sequence (Q13153 2-545 limits assumed, change not shown): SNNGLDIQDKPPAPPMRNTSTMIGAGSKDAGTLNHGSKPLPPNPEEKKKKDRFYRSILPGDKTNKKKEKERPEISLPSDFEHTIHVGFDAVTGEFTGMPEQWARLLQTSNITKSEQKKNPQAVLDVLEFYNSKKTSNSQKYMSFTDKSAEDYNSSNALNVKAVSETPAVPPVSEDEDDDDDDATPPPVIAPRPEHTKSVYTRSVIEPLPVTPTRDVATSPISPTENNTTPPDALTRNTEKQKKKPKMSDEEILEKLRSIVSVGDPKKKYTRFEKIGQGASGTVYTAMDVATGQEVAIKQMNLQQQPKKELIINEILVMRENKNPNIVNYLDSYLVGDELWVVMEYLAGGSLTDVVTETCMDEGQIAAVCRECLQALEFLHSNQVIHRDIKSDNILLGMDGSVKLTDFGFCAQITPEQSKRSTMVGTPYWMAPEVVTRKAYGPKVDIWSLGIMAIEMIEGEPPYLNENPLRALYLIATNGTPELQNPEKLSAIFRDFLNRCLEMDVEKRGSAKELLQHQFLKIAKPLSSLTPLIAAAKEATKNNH
456 kinases (of these 395 non-mutant kinases) (Homo sapiens, UniProt P07948), sequence (P07948 2-512 limits assumed, change not shown): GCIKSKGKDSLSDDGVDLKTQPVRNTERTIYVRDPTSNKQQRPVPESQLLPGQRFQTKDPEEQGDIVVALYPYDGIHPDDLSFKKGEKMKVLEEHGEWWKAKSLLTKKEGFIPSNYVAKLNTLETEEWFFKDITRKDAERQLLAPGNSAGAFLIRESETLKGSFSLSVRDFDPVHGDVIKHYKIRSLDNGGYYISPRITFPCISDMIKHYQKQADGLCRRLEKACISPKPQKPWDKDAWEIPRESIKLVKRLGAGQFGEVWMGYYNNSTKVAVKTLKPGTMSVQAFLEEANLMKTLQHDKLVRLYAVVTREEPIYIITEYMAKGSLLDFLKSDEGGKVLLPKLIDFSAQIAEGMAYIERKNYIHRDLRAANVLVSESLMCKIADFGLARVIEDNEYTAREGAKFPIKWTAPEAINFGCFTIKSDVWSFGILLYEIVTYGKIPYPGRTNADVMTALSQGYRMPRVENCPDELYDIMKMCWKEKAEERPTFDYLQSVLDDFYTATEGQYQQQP
456 kinases (of these 395 non-mutant kinases) (Homo sapiens, UniProt P07947), sequence (P07947 2-543 limits assumed, change not shown): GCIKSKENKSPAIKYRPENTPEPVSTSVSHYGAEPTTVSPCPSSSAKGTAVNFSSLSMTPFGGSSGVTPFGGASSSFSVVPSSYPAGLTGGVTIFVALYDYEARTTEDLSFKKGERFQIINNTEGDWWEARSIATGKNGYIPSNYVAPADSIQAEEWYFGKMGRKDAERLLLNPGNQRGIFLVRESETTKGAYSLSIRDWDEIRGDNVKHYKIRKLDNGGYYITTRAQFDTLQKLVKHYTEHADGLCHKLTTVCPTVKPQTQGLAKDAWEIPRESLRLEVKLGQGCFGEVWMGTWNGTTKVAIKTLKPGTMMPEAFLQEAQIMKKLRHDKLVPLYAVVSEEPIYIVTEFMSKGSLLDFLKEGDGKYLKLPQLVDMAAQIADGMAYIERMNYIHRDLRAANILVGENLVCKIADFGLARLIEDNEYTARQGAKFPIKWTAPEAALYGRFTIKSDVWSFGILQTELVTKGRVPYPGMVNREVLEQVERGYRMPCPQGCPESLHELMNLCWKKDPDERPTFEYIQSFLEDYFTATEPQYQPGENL

Which results are given for `CCc1ccccc1NC(=O)c1c(C)nsc1Nc1cnc2cc(F)ccc2n1` [Example 20, N-(2-Ethylphenyl)-5-[(6-fluoroquinoxalin-2-yl)amino]-3-methyl-1,2-thiazole-4-carboxamide]?
% Ctrl @ 10 μM [1]: 96 % Ctrl; % Ctrl @ 10 μM [2]: 100 % Ctrl; % Ctrl @ 10 μM [3]: 90 % Ctrl; % Ctrl @ 10 μM [4]: 100 % Ctrl; % Ctrl @ 10 μM [5]: 87 % Ctrl; % Ctrl @ 10 μM [6]: 61 % Ctrl; % Ctrl @ 10 μM [7]: 100 % Ctrl; % Ctrl @ 10 μM [8]: 85 % Ctrl; % Ctrl @ 10 μM [9]: 100 % Ctrl; % Ctrl @ 10 μM [10]: 82 % Ctrl; % Ctrl @ 10 μM [11]: 90 % Ctrl; % Ctrl @ 10 μM [12]: 100 % Ctrl; % Ctrl @ 10 μM [13]: 72 % Ctrl; % Ctrl @ 10 μM [14]: 91 % Ctrl; % Ctrl @ 10 μM [15]: 100 % Ctrl; % Ctrl @ 10 μM [16]: 80 % Ctrl; % Ctrl @ 10 μM [17]: 100 % Ctrl; % Ctrl @ 10 μM [18]: 82 % Ctrl; % Ctrl @ 10 μM [19]: 100 % Ctrl; % Ctrl @ 10 μM [20]: 94 % Ctrl; % Ctrl @ 10 μM [21]: 100 % Ctrl; % Ctrl @ 10 μM [22]: 76 % Ctrl; % Ctrl @ 10 μM [23]: 100 % Ctrl; % Ctrl @ 10 μM [24]: 100 % Ctrl; % Ctrl @ 10 μM [25]: 62 % Ctrl; % Ctrl @ 10 μM [26]: 84 % Ctrl; % Ctrl @ 10 μM [27]: 84 % Ctrl; % Ctrl @ 10 μM [28]: 100 % Ctrl; % Ctrl @ 10 μM [29]: 68 % Ctrl; % Ctrl @ 10 μM [30]: 100 % Ctrl; % Ctrl @ 10 μM [31]: 67 % Ctrl; % Ctrl @ 10 μM [32]: 100 % Ctrl
